Measured values reported in patent US3968204A, “Antibiotic A-2315” (priority 1975, dated 1976).
Values after ≈ are worked out from the molar mass of the structure shown.

Experiments:
[1] = tested on: Staphylococcus aureus 3055; test: Agar-dilution MIC; assay type: cell-based; conditions: Agar-Dilution Method, benzylpenicillin-susceptible
[2] = tested on: Salmonella typhimurium; test: Agar-dilution MIC; assay type: cell-based; conditions: Salmonella enterica, Agar-Dilution Method
[3] = tested on: Treponema hyodysenteriae; test: Agar-dilution MIC, anaerobe; assay type: cell-based; conditions: Brachyspira hyodysenteriae; agar-dilution method; anaerobic
Description: The A-2315 antibiotics are also active against anaerobic bacteria. In one aspect of this activity, the A-2315 antibiotics are active against Treponema hyodysenteriae, a cause of swine dysentery. The minimal concentrations of A-2315 factors which inhibit this organism, as determined by the agar-dilution method, are as follows: […]

[4] = tested on: Clostridium inocuum; test: MIC, anaerobic bacteria; assay type: cell-based
[5] = tested on: Clostridium septicum; test: MIC, anaerobic bacteria; assay type: cell-based
[6] = tested on: Peptococcus anaerobius; test: MIC, anaerobic bacteria; assay type: cell-based
[7] = tested on: Propionibacterium acnes; test: MIC, anaerobic bacteria; assay type: cell-based; conditions: Cutibacterium acnes
[8] = tested on: Bacteriodes fragilis ssp. thetaotamicron; test: MIC, anaerobic bacteria; assay type: cell-based
[9] = tested on: Fusobacterium nucleatum; test: MIC, anaerobic bacteria; assay type: cell-based
[10] = tested on: Streptococcus pyogenes; test: Protection of mice against experimental bacterial infection; assay type: in vivo; conditions: sc, subcutaneous, two doses
Method: When two doses each of A-2315 factors were administered to mice in illustrative infections, the ED50 values [effective dose in mg/kg to protect 50 percent of the test aninals; see Warren Wick, et al., J. Bacteriol.

[11] = tested on: Mycoplasma gallisepticum; test: Activity in chicks infected with Mycoplasma gallisepticum; assay type: in vivo, chickens
Method: The antibiotic factor was prepared in polyethylene glycol 200 and injected subcutaneously in the neck.

[12] = tested on: cariogenic Streptococcus sp.; test: Artificial plaque glass rod test; assay type: cell-based; conditions: 0.1% solution, contact with plaque-encrusted rods as little as 5 minutes
Method: Narrow glass rods, which extend below the surface of the nutrient broth, are inserted into the tubes. After incubation at 37°C. overnight, a layer of artificial plaque (primarily cells and dextran) forms on the surface of the rods. The rods are then transferred to solutions containing varying concentrations of test compound and are allowed to remain in contact with these solutions for periods of 5, 10, and 15 minutes. After the appropriate time has elapsed, the rods are rinsed by dipping in sterile, deionized water; the rods are then incubated overnight at 37°C. in uninoculated medium containing sucrose and bromothymol blue. Growth is detected by observing the color change of bromothymol blue from green to yellow, due to acid production by the organisms when grown in a sucrose-containing medium.

[13] = tested on: Ruminal VFA; test: Ruminal volatile fatty acids in vitro; design: species or system steer; conditions: 16 hours, 38°C
Description: Rumen fluid is obtained from a steer with a surgically-installed fistula opening into the rumen. The steer is maintained on a high-grain ration, the composition of which follows:
A sample of rumen fluid is strained through four layers of cheesecloth, and the filtrate is collected. The particulate matter retained by the cheesecloth is resuspended in enough physiological buffer to return it to the original volume of the rumen fluid, and this suspension is strained again. The buffer used has the following composition:
The two filtrates are combined and allowed to stand until particulate matter separates to the top. The clear layer is separated, diluted with the same buffer (1:1) and then adjusted to pH 7.0.
The diluted rumen fluid (10 ml) is placed in a 25-ml flask with 40 mg of the above-described feed, an additional 5 mg of soybean protein, and the test compound. Four replicate flasks are used per treatment. Two sets of four control flasks each are also employed. A zero-time control and an incubated 16-hour control are used. All test flasks are incubated for 16 hours at 38°C. After incubation, the pH is measured; and 25 percent metaphosphoric acid (2 ml) is added to each flask. The samples are allowed to settle, and the supernatant is analyzed by gas chromatography for propionate, acetate, butyrate compounds.
Test-compound results are statistically compared with control results.

[14] = tested on: Ruminal VFA; test: Ruminal volatile fatty acids in vivo in fistulated lambs; design: species or system sheep; conditions: 17 days
Method: Further evidence of the ability of the A-2315 antibiotics to increase feed-utilization efficiency is provided by an in vivo test of A-2315 factor A in sheep, using a procedure as follows:
Two groups of fistulated lambs are allowed slightly more than their normal feed ration for 17 days. Test compound is administered to one group in the feed on a g/ton basis.
The rumen fluids of both groups of animals are sampled on days 3, 7, 10, 14 and 17 of the treatment period.
The fermentation of the ruminal samples is halted by addition of meta-phosphoric acid. Each sample is diluted, centrifuged at 2000 × gravity for 10 minutes; the supernatants are analyzed for volatile fatty acids via the gas chromatographic method of E. S. Erwin, G. J. Marco and E. M. Emery in J. Dairy Sci., 44, 1768 (1966). Molar percentages of ruminal volatile fatty acids are calculated, and the effect is measured as a comparison of the molar percentages of propionic acid in treated animals to those in contemporary controls.

[15] = Solubility
[16] = tested on: Staphylococcus aureus 3130; test: Disc-plate MIC; conditions: Disc-Plate Method; benzylpenicillin-resistant, methicillin-resistant
[17] = tested on: Staphylococcus aureus 3074; test: Disc-plate MIC; conditions: Disc-Plate Method; benzylpenicillin-resistant, methicillin-resistant
[18] = tested on: Klebsiella pneumoniae KA14; test: Disc-plate MIC; conditions: Disc-Plate Method
[19] = tested on: Candida albicans; test: Disc-plate MIC; conditions: Disc-Plate Method
[20] = tested on: Salmonella typhosa; test: Agar-dilution MIC; conditions: Salmonella enterica
[21] = 3 mg./chick, subcutaneous, at 14 Days, infected controls 7/7
[22] = surviving infected chickens, subcutaneous
[23] = 0.1 mcg per ml diluted rumen fluid
[24] = 0.3 mcg per ml diluted rumen fluid
[25] = 1.0 mcg per ml diluted rumen fluid

SMILES: CC1=CC(O)CC(O)Cc2nc(co2)C(=O)NC(C)C(=O)OC(C(C)C)C(C)C=CC(=O)NCC=C1 (stereo not drawn) [Factor A]
- MIC [1]: 6.25 µg/mL (≈ 12.4 µM)
- MIC [2]: > 100 µg/mL
- MIC [3]: < 0.195 µg/mL
- MIC [4]: 32 µg/mL (≈ 63.5 µM)
- MIC [5]: 32 µg/mL (≈ 63.5 µM)
- MIC [6]: 2 µg/mL (≈ 3.97 µM)
- MIC [7]: 8 µg/mL (≈ 15.9 µM)
- MIC [8]: 128 µg/mL (≈ 254 µM)
- MIC [9]: 128 µg/mL (≈ 254 µM)
- ED50 ([10]; Test I, challenge 10,000 × LD50 (ip)): 83 mg/kg
- ED50 ([10]; Test II): 27.4 mg/kg
- No. Died / No. in Group ([11]; 3 mg./chick, subcutaneous in neck, infected): 12/20
- Dead Chicks: Air-Sac Lesions ([11]; 3 mg./chick, subcutaneous, 3/9 not examined due to decomposition): 9/9
- Survivors: Air-Sac Lesions [11, 21]: 0/8
- Survivors: MG Antibody [11, 21]: 8/8
- Survivors: Average Weight ([11]; 3 mg./chick, subcutaneous, at 14 Days, infected controls 100 gm., normal controls 214 gm.): 133 gm.
- signs of toxicity ([11]; infected chickens, in polyethylene glycol 200, subcutaneous in the neck): No signs of toxicity were seen, except for slight hemorrhage in the neck area in some of the treated chicks that died early
- incidence of air-sac lesions [11, 22]: lowered incidence of air-sac lesions
- weight advantage [11, 22]: some weight advantage
- effect on cariogenic organism in artificial plaque [12]: effective
- Acetate, ratio of VFA concentration treated to control [13, 23]: 0.97
- Butyrate, ratio of VFA concentration treated to control [13, 23]: 1.01
- Propionate, ratio of VFA concentration treated to control [13, 23]: 1.07
- Total VFA, ratio of concentration treated to control [13, 23]: 1.04
- Acetate, ratio of VFA concentration treated to control [13, 24]: 0.95
- Butyrate, ratio of VFA concentration treated to control [13, 24]: 1.00
- Propionate, ratio of VFA concentration treated to control [13, 24]: 1.08
- Total VFA, ratio of concentration treated to control [13, 24]: 1.07
- Acetate, ratio of VFA concentration treated to control [13, 25]: 0.95
- Butyrate, ratio of VFA concentration treated to control [13, 25]: 1.04
- Propionate, ratio of VFA concentration treated to control [13, 25]: 1.15
- Total VFA, ratio of concentration treated to control [13, 25]: 1.05
- % Increase Over Control (propionic acid) ([14]; 15g/ton in feed): 4.8%
- % Increase over Control (butyric acid) ([14]; 15g/ton in feed): 2.4%
- Increase Relative to Control (butyric acid) ([14]; 15g/ton in feed): 21.6%
- Increase Relative to Control (propionic acid) ([14]; 15g/ton in feed): 18.2%
- % Butyric Acid Conc. ([14]; 15 g/ton in feed, control 11.1): 13.5%
- % Propionic Acid Conc. ([14]; 15g/ton in feed, control 26.2): 31.0%
- solubility in organic solvents [15]: soluble
- solubility in water [15]: only slightly soluble
- MIC [16]: 0.2 μg/disc
- MIC [17]: 0.4 μg/disc
- MIC [18]: 50.0 μg/disc
- MIC [19]: 100.0 μg/disc
- MIC [20]: > 100 µg/mL
